Reference: patent publication US10894784B2, “Heteroarylbenzimidazole compounds” (BAYER PHARMA AKTIENGESELLSCHAFT, priority 2015, dated 2021)

Target: TBK1 (Homo sapiens (Human), UniProt Q9UHD2)
Assay: TBK1 low ATP kinase assay (in vitro assay 1)
Type: biochemical
Conditions: TBK1 low ATP kinase assay IC50, in vitro assay 1

TBK1, sequence (Q9UHD2 whole entry): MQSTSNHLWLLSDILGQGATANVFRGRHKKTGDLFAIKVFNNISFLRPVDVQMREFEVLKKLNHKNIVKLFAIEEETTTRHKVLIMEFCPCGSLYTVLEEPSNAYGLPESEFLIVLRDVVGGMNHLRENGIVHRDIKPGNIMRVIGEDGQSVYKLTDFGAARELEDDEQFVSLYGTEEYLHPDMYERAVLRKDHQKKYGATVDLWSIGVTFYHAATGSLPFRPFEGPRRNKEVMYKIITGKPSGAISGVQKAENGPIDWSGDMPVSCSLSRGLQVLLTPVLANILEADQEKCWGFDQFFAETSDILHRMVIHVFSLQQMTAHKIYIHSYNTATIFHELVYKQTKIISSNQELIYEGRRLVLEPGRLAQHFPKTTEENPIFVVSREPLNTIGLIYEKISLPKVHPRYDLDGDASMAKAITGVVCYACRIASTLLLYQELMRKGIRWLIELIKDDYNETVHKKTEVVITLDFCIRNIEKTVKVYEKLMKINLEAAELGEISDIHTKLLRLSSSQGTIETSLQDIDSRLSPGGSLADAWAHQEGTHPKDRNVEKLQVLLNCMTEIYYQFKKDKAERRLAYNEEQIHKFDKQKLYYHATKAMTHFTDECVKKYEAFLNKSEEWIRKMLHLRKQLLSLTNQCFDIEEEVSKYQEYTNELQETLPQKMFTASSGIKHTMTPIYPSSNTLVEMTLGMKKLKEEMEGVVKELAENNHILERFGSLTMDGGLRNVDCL

IC50 [nM] | Structure (SMILES)
105 | Cc1noc(-c2ccc3nc(Nc4cc(C(C)N5CCN(C(=O)CC(F)(F)F)CC5)ccn4)[nH]c3c2)n1 (single isomer, unassigned) [Example 16.06.02.A, 3,3,3-trifluoro-1-{4-[(1R or 1S)-1-(2-{[6-(3-methyl-1,2,4-oxadiazol-5-yl)-1H-benzimidazol-2-yl]amino}pyridin-4-yl)ethyl]piperazin-1-yl}propan-1-one]

Same assay, conditions: in vitro assay 1, read-out: TBK1 low ATP kinase assay IC50

IC50 [nM] | Structure (SMILES)
2.9 | CC(c1ccnc(Nc2nc3ccc(-c4cnn(CC5CC5(C)C)c4)cc3[nH]2)c1)N1CCN(C(=O)CC(F)(F)F)CC1 (single isomer, unassigned) [Example 67.02, 1-{4-[(1R or 1S)-1-(2-{[6-(1-{[(1RS)-2,2-dimethylcyclopropyl]methyl}-1H-pyrazol-4-yl)-1H-benzimidazol-2-yl]amino}pyridin-4-yl)ethyl]piperazin-1-yl}-3,3,3-trifluoropropan-1-one]
6.5 | CCN(C)c1cc(-c2ccc3nc(Nc4cc(CN5CCN(C(=O)CC(F)(F)F)CC5)ccn4)[nH]c3c2)ncn1 [Example 148.02, 1-[4({2-[(6-{6-[ethyl(methyl)amino]pyrimidin-4-yl}-1H-benzimidazol-2-yl)amino]pyridin-4-yl}methyl)piperazin-1-yl]-3,3,3-trifluoropropan-1-one]
1250 | COc1ccc(-c2ccc3nc(Nc4cc(CN5CCN(C(=O)OC(C)(C)C)CC5)ccn4)[nH]c3c2)cn1 [Example 13.01, tert-butyl 4-[(2-{[6-(6-methoxypyridin-3-yl)-1H-benzimidazol-2-yl]amino}pyridin-4-yl)methyl]piperazine-1-carboxylate]
8.23 | CC(c1ccnc(Nc2nc3ccc(-c4ccncn4)cc3[nH]2)c1)N1CCN(C(=O)CC(F)(F)F)CC1 (single isomer, unassigned) [Example 23.05.02.A, 3,3,3-trifluoro-1-{4-[(1R or 1S)-1-(2-{[6-(pyrimidin-4-yl)-1H-benzimidazol-2-yl]amino}pyridin-4-yl)ethyl]piperazin-1-yl}propan-1-one]
224 | COc1cnc(C)cc1-c1ccc2nc(Nc3cc(CN4CCN(C(=O)C5CC5)CC4)ccn3)[nH]c2c1 [Example 07.01, cyclopropyl{4-[(2-{[6-(5-methoxy-2-methylpyridin-4-yl)-1H-benzimidazol-2-yl]amino}pyridin-4-yl)methyl]piperazin-1-yl}methanone]
560 | Cc1ccnc(N2CCN(Cc3ccnc(Nc4nc5ccc(-c6nc(C)no6)cc5[nH]4)c3)CC2)c1 [Example 101.30, 6-(3-methyl-1,2,4-oxadiazol-5-yl)-N-(4-{[4-(4-methylpyridin-2-yl)piperazin-1-yl]methyl}pyridin-2-yl)-1H-benzimidazol-2-amine]
120 | CC(c1ccnc(Nc2nc3ccc(-c4cnn(C(C)C5CC5)c4)cc3[nH]2)c1)N1CCN(C(=O)OC(C)(C)C)CC1 (single isomer, unassigned) [Example 74.01, tert-butyl 4-[(1R or 1S)-1-{2-[(6-{1-[(1RS)-1-cyclopropylethyl]-1H-pyrazol-4-yl}-1H-benzimidazol-2-yl)amino]pyridin-4-yl}ethyl]piperazine-1-carboxylate]
3.38 | O=C(CC(F)(F)F)N1CCN(Cc2ccnc(Nc3nc4ccc(-c5ccnc(OCC6CC6)n5)cc4[nH]3)c2)CC1 [Example 62.01.03, 1-(4-{[2-({6-[2-(cyclopropylmethoxy)pyrimidin-4-yl]-1H-benzimidazol-2-yl}amino)pyridin-4-yl]methyl}piperazin-1-yl)-3,3,3-trifluoropropan-1-one]
193 | COc1cncc(-c2ccc3nc(Nc4cc(CN5CCN(C(=O)C6CC6)CC5)ccn4)[nH]c3c2)n1 [Example 48.01, cyclopropyl{4-[(2-{[6-(6-methoxypyrazin-2-yl)-1H-benzimidazol-2-yl]amino}pyridin-4-yl)methyl]piperazin-1-yl}methanone]
4.18 | O=C(CC(F)(F)F)N1CCN(Cc2ccnc(Nc3nc4ccc(-c5ncnc6ccoc56)cc4[nH]3)c2)CC1 [Example 168.02, 3,3,3-trifluoro-1-{4-[(2-{[6-(furo[3,2-d]pyrimidin-4-yl)-1H-benzimidazol-2-yl]amino}pyridin-4-yl)methyl]piperazin-1-yl}propan-1-one]
12.4 | Cc1nccc(-c2ccc3nc(Nc4cc(C(C)N5CCN(C(=O)CC(F)(F)F)CC5)ccn4)[nH]c3c2)n1 (racemic) [Example 24.04.03, (rac)-3,3,3-trifluoro-1-{4-[1-(2-{[6-(2-methylpyrimidin-4-yl)-1H-benzimidazol-2-yl]amino}pyridin-4-yl)ethyl]piperazin-1-yl}propan-1-one]
402 | Cc1cc(-c2ccc3nc(Nc4cc(CN5CCN(C(=O)CC(F)(F)F)CC5)ccn4)[nH]c3c2)nc(N(C)C)n1 [Example 178.02, 1-(4-{[2-({6-[2-(dimethylamino)-6-methylpyrimidin-4-yl]-1H-benzimidazol-2-yl}amino)pyridin-4-yl]methyl}piperazin-1-yl)-3,3,3-trifluoropropan-1-one]
270 | CCOc1c(-c2ccncc2OC)ccc2nc(Nc3cc(CN4CCN(C(=O)CC5CC5)CC4)ccn3)[nH]c12 [Example 51.02, 2-cyclopropyl-1-{4-[(2-{[7-ethoxy-6-(3-methoxypyridin-4-yl)-1H-benzimidazol-2-yl]amino}pyridin-4-yl)methyl]piperazin-1-yl}ethanone]
560 | Cc1noc(-c2ccc3nc(Nc4cc(CN5CCN(C(N)=O)CC5)ccn4)[nH]c3c2)n1 [Example 101.20, 4-[(2-{[6-(3-methyl-1,2,4-oxadiazol-5-yl)-1H-benzimidazol-2-yl]amino}pyridin-4-yl)methyl]piperazine-1-carboxamide]
4.1 | Nc1cc(-c2ccc3nc(Nc4cc(CN5CCN(C(=O)CC(F)(F)F)CC5)ccn4)[nH]c3c2)ccn1 [Example 138.02, 1-{4-[(2-{[6-(2-aminopyridin-4-yl)-1H-benzimidazol-2-yl]amino}pyridin-4-yl)methyl]piperazin-1-yl}-3,3,3-trifluoropropan-1-one]
300 | CC(c1ccnc(Nc2nc3ccc(-c4cc(OCC(F)(F)C(F)(F)F)ncn4)cc3[nH]2)c1)N1CCN(C(=O)OC(C)(C)C)CC1 (single isomer, unassigned) [Example 166.01, tert-butyl 4-{(1R or 1S)-1-[2-({6-[6-(2,2,3,3,3-pentafluoropropoxy)pyrimidin-4-yl]-1H-benzimidazol-2-yl}amino)pyridin-4-yl]ethyl}piperazine-1-carboxylate]
45.9 | O=C(CC(F)(F)F)N1CCN(Cc2ccnc(Nc3nc4ccc(-c5ncnc(NC6CCC6)c5F)cc4[nH]3)c2)CC1 [Example 194.02, 1-(4-{[2-({6-[6-(cyclobutylamino)-5-fluoropyrimidin-4-yl]-1H-benzimidazol-2-yl}amino)pyridin-4-yl]methyl}piperazin-1-yl)-3,3,3-trifluoropropan-1-one]
15 | Cc1cc(-c2ccc3nc(Nc4cc(C(C)N5CCN(C(=O)C6CC6)CC5)ccn4)[nH]c3c2F)ncn1 (single isomer, unassigned) [Example 172.03, cyclopropyl{4-[(1R or 1S)-1-(2-{[7-fluoro-6-(6-methylpyrimidin-4-yl)-1H-benzimidazol-2-yl]amino}pyridin-4-yl)ethyl]piperazin-1-yl}methanone]
3.2 | O=C(CC(F)(F)F)N1CCN(Cc2ccnc(Nc3nc4ccc(-c5cc(C6CC6)ncn5)cc4[nH]3)c2)CC1 [Example 76.01, 1-{4-[(2-{[6-(6-cyclopropylpyrimidin-4-yl)-1H-benzimidazol-2-yl]amino}pyridin-4-yl)methyl]piperazin-1-yl}-3,3,3-trifluoropropan-1-one]
504 | COc1cnnc(-c2ccc3nc(Nc4cc(CN5CCN(C(=O)C6CC6)CC5)ccn4)[nH]c3c2)c1 [Example 47.02, cyclopropyl{4-[(2-{[6-(5-methoxypyridazin-3-yl)-1H-benzimidazol-2-yl]amino}pyridin-4-yl)methyl]piperazin-1-yl}methanone]
193 | O=C(C1CC1)N1CCN(Cc2ccnc(Nc3nc4ccc(-c5nc(Cc6ccccc6)no5)cc4[nH]3)c2)CC1 [Example 21.01, {4-[(2-{[6-(3-benzyl-1,2,4-oxadiazol-5-yl)-1H-benzimidazol-2-yl]amino}pyridin-4-yl)methyl]piperazin-1-yl}(cyclopropyl)methanone]
4.8 | CCN(C)c1cc(-c2ccc3nc(Nc4cc(CN5CCN(C(=O)C6CC6)CC5)ccn4)[nH]c3c2)ncn1 [Example 148.03, cyclopropyl[4-({2-[(6-{6-[ethyl(methyl)amino]pyrimidin-4-yl}-1H-benzimidazol-2-yl)amino]pyridin-4-yl}methyl)piperazin-1-yl]methanone]
27.5 | Cc1cc(-c2ccc3nc(Nc4cc(C(C)N5CCN(C(=O)C6CCC6)CC5)ccn4)[nH]c3c2)ncn1 (single isomer, unassigned) [Example 30.03.02.B, cyclobutyl{4-[(1S or 1R)-1-(2-{[6-(6-methylpyrimidin-4-yl)-1H-benzimidazol-2-yl]amino}pyridin-4-yl)ethyl]piperazin-1-yl}methanone]
251 | CCOc1cnc(C)cc1-c1ccc2nc(Nc3cc(CN4CCN(C(=O)CC(F)(F)F)CC4)ccn3)[nH]c2c1 [Example 09.01, 1-{4-[(2-{[6-(5-ethoxy-2-methylpyridin-4-yl)-1H-benzimidazol-2-yl]amino}pyridin-4-yl)methyl]piperazin-1-yl}-3,3,3-trifluoropropan-1-one]
610 | Cc1cc(-c2ccc3nc(Nc4cc(C(C)N5CCN(C(=O)OC(C)(C)C)CC5)ccn4)[nH]c3c2)n(C)n1 (single isomer, unassigned) [Example 89.01, tert-butyl 4-[(1R or 1S)-1-(2-{[6-(1,3-dimethyl-1H-pyrazol-5-yl)-1H-benzimidazol-2-yl]amino}pyridin-4-yl)ethyl]piperazine-1-carboxylate]
19.7 | COc1c(C)ncnc1-c1ccc2nc(Nc3cc(CN4CCN(C(=O)CC(F)(F)F)CC4)ccn3)[nH]c2c1 [Example 61.01.01, 3,3,3-trifluoro-1-{4-[(2-{[6-(5-methoxy-6-methylpyrimidin-4-yl)-1H-benzimidazol-2-yl]amino}pyridin-4-yl)methyl]piperazin-1-yl}propan-1-one]
